What was measured:
[1] = test system: breast cancer cells (MDA); experiment: MTT assay, in vitro growth inhibition, MDA cells; assay type: cell-based; set-up: in vitro growth inhibition rate, MDA: unit not given here; details: test drug concentration 4 μg/mL, 37° C., 3 days; for inhibition at 4 µg/mL: 72 h, read-out: in vitro growth inhibition rate, MDA
Experimental: (§1) The in vitro cytotoxicity of the compounds of the present invention was tested with reference to the experimental methods reported in the literature (Liu Yanqin et al., Organic Chemistry, 2002, 22(4), 279-282). The human oral epithelial cancer cells (KB), human lung cancer cells (A-549), and breast cancer cells (MDA) were used to test the in vitro growth inhibition rate of the compounds by MTT assay. Cells were cultured at 37° C. for 3 days under a test drug concentration of 4 μg/mL.

[2] = test system: human lung cancer cells (A-549); experiment: MTT assay, in vitro growth inhibition, A-549 cells; assay type: cell-based; set-up: in vitro growth inhibition rate, A549: unit not given here; details: test drug concentration 4 μg/mL, 37° C., 3 days; for inhibition at 4 µg/mL: Homo sapiens, A549, 72 h, read-out: in vitro growth inhibition rate, A549
Experimental: as §1

| Structure (SMILES) | in vitro growth inhibition rate, MDA [1] | in vitro growth inhibition rate, A549 [2] | inhibition at 4 µg/mL [1] [%] | inhibition at 4 µg/mL [2] [%] |
| --- | --- | --- | --- | --- |
| CNC(C)CNC(=O)c1cccc2cc3ccccc3nc12 (stereo not shown) [Compound 5] | −5.1 | −11 | – | – |
| CCNC(C)CNC(=O)c1cccc2cc3ccccc3nc12 (stereo not shown) [Compound 6] | −1.5 | −5 | – | – |
| CCN(C)C(C)CNC(=O)c1cccc2cc3ccccc3nc12 (stereo not shown) [Compound 7] | 4.4 | −5.8 | – | – |
| CCN(CC)C(C)CNC(=O)c1cccc2cc3ccccc3nc12 (stereo not shown) [Compound 8] | −4.7 | −6.6 | – | – |
| CC(C)N(C)C(C)CNC(=O)c1cccc2cc3ccccc3nc12 (stereo not shown) [Compound 10, N-[2-(N-isopropylmethylamino)propyl]acridine-4-carboxamide] | – | – | 1.2 | 3.3 |
| CCNCC(C)NC(=O)c1cccc2cc3ccccc3nc12 (stereo not shown) [Compound 22] | 2.5 | 3.1 | – | – |
| Cc1cccc2nc3cccc(C(=O)NCC(C)N(C)C(C)C)c3nc12 (stereo not shown) [Compound 50, N-[2-(N-isopropylmethylamino)propyl]-1-methylphenazine-9-carboxamide] | – | – | -7.2 | -7.8 |
| Cc1cccc2nc3cccc(C(=O)NC(C)CN(C)C(C)C)c3nc12 (stereo not shown) [Compound 66, N-[1-methyl-2-(N-isopropylmethylamino)ethyl]-1-methylphenazine-9-carboxamide] | – | – | 1.9 | 1.2 |
| CNCCNC(=O)c1cn(-c2ccc(F)cc2)c(=O)c2cc3cccc(C)c3nc12 [Compound 85] | −1.8 | −3.4 | – | – |
| CCN(C)CCNC(=O)c1cn(-c2ccc(F)cc2)c(=O)c2cc3cccc(C)c3nc12 [Compound 86] | 14 | 9.8 | – | – |
| CCNCCNC(=O)c1cn(C)c(=O)c2cc3cccc(C)c3nc12 [Compound 87] | 3.9 | 5 | – | – |
| CCN(C)CCNC(=O)c1cn(C)c(=O)c2cc3cccc(C)c3nc12 [Compound 88] | 1.4 | 1.6 | – | – |
| CCN(C)CCNC(=O)c1cn(CC)c(=O)c2cc3cccc(C)c3nc12 [Compound 90, N-[2-(N-ethylmethylamino)ethyl]-2-ethyl-6-methyl-1-oxo-1,2-dihydrobenzo[b][1,6]naphthyridine-4-carboxamide] | – | – | 6.4 | 3.5 |
| CN(C)CCNC(=O)c1cccc2cc3ccccc3nc12 [DACA (1), reference compound] | – | – | 2 | 1.7 |

Reference: patent publication US11046687B2, “Polycyclic amide compound, preparation process and use thereof” (HEBEI GRANDIOS PHARMA CO., LTD., priority 2018, dated 2021)
